Experimental data as given in patent US7396837B2, “Antitumoral analogs of lamellarins” (Pharma Mar, S.A.U., priority 2002, dated 2008).
Like-named read-outs stand apart in the source and are kept apart here.

What was measured:
Type in all cases: cell-based
IGROV-ET = test: SRB colorimetric cell growth inhibition assay, IGROV-ET (ET-743 resistant); details: IGROV-ET; for GI50: GI=growth inhibition, read-out: GI50 IGROV-ET; for CC50: cell killing (cytotoxic effect), read-out: LC50 IGROV-ET; for TGI IGROV-ET: total growth inhibition (cytostatic effect)
Summary of the method: (§1)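 Tested samples remained on human cancer cell cultures throughout the incubation; viable biomass was then stained with SRB and read colorimetrically.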

LNCaP = test: SRB colorimetric cell growth inhibition assay, LNCaP; details: LN-caP; for GI50: GI=growth inhibition, read-out: GI50 LN-caP; for CC50: cell killing (cytotoxic effect), read-out: LC50 LN-caP; for TGI LN-caP: total growth inhibition (cytostatic effect)
Summary of the method: as §1

PANC-1 = test: SRB colorimetric cell growth inhibition assay, PANC-1; details: for GI50: GI=growth inhibition, read-out: GI50 PANC-1; for CC50: cell killing (cytotoxic effect), read-out: LC50 PANC-1
Summary of the method: as §1

LoVo-Dox = test: SRB colorimetric cell growth inhibition assay, LoVo-Dox (MDR); details: LOVO-DOX; for GI50: GI=growth inhibition, read-out: GI50 LOVO-DOX; for CC50: cell killing (cytotoxic effect), read-out: LC50 LOVO-DOX
Summary of the method: as §1

HT-29 = test: SRB colorimetric cell growth inhibition assay, HT-29; details: for GI50: GI=growth inhibition, read-out: GI50 HT-29; for CC50: cell killing (cytotoxic effect), read-out: LC50 HT-29
Summary of the method: as §1

SK-MEL-28 = test: SRB colorimetric cell growth inhibition assay, SK-MEL-28; details: MEL-28; for GI50: GI=growth inhibition, read-out: GI50 MEL-28; for CC50: cell killing (cytotoxic effect), read-out: LC50 MEL-28; for TGI MEL-28: total growth inhibition (cytostatic effect)
Summary of the method: as §1

IGROV = test: SRB colorimetric cell growth inhibition assay, IGROV; details: IGROV; for GI50: GI=growth inhibition, read-out: GI50 IGROV; for CC50: cell killing (cytotoxic effect), read-out: LC50 IGROV; for TGI IGROV: total growth inhibition (cytostatic effect)
Summary of the method: as §1

LoVo = test: SRB colorimetric cell growth inhibition assay, LoVo; details: for GI50: GI=growth inhibition, read-out: GI50 LOVO; for CC50: cell killing (cytotoxic effect), read-out: LC50 LOVO
Summary of the method: as §1

SK-BR-3 = test: SRB colorimetric cell growth inhibition assay, SK-BR-3; details: SK-BR-3; for GI50: GI=growth inhibition, read-out: GI50 SK-BR-3; for CC50: cell killing (cytotoxic effect), read-out: LC50 SK-BR-3; for TGI SK-BR-3: total growth inhibition (cytostatic effect)
Summary of the method: as §1

DU-145 = test: SRB colorimetric cell growth inhibition assay, DU-145; details: DU-145; for GI50: GI=growth inhibition, read-out: GI50 DU-145; for CC50: cell killing (cytotoxic effect), read-out: LC50 DU-145; for TGI DU-145: total growth inhibition (cytostatic effect)
Summary of the method: as §1

K-562 = test: SRB colorimetric cell growth inhibition assay, K-562; details: for GI50: GI=growth inhibition, read-out: GI50 K-562; for CC50: cell killing (cytotoxic effect), read-out: LC50 K-562
Summary of the method: as §1

HeLa-APL = test: SRB colorimetric cell growth inhibition assay, HeLa-APL (aplidine resistant); details: HELA-APL; for GI50: GI=growth inhibition, read-out: GI50 HELA-APL; for CC50: cell killing (cytotoxic effect), read-out: LC50 HELA-APL
Summary of the method: as §1

A-549 = test: SRB colorimetric cell growth inhibition assay, A-549; details: for GI50: GI=growth inhibition, read-out: GI50 A-549; for CC50: cell killing (cytotoxic effect), read-out: LC50 A-549
Summary of the method: as §1

HeLa = test: SRB colorimetric cell growth inhibition assay, HeLa; details: for GI50: GI=growth inhibition, read-out: GI50 HELA; for CC50: cell killing (cytotoxic effect), read-out: LC50 HELA
Summary of the method: as §1

[1] = total growth inhibition (cytostatic effect)

COc1cc2c(cc1O)oc(=O)c1c2c(-c2ccc(OC(=O)[C@H](C)N)c(OC)c2)c2c3cc(OC)c(O)cc3ccn21.Cl [Compound 238]
GI50 (IGROV-ET): 41.3 nM | CC50 (IGROV-ET): 16500 nM | TGI IGROV-ET (IGROV-ET): 1.44E−07 Molar | GI50 (LNCaP): 2130 nM | CC50 (LNCaP): 16500 nM | TGI LN-caP (LNCaP): 1.65E−05 Molar | GI50 (PANC-1; PANC-1): 25.4 nM | CC50 (PANC-1; PANC-1): 1610 nM | TGI PANC-1 (PANC-1; PANC-1, total growth inhibition (cytostatic effect)): 2.50E−07 Molar | GI50 (LoVo-Dox): 2260 nM | CC50 (LoVo-Dox): 16500 nM | TGI LOVO-DOX (LoVo-Dox; [1]): 8.98E−07 Molar | GI50 (HT-29; HT-29): 2650 nM | CC50 (HT-29; HT-29): 16500 nM | TGI HT-29 (HT-29; HT-29, total growth inhibition (cytostatic effect)): 1.06E−05 Molar | GI50 (SK-MEL-28): 52.6 nM | CC50 (SK-MEL-28): 12500 nM | TGI MEL-28 (SK-MEL-28): 3.51E−07 Molar | GI50 (IGROV): 79.9 nM | CC50 (IGROV): 1260 nM | TGI IGROV (IGROV): 2.82E−07 Molar | GI50 (LoVo; LOVO): 57 nM | CC50 (LoVo; LOVO): 1290 nM | TGI LOVO (LoVo; LOVO, total growth inhibition (cytostatic effect)): 2.26E−07 Molar | GI50 (SK-BR-3): 153 nM | CC50 (SK-BR-3): 16500 nM | TGI SK-BR-3 (SK-BR-3): 1.61E−06 Molar | GI50 (DU-145): 45.8 nM | CC50 (DU-145): 16500 nM | TGI DU-145 (DU-145): 9.65E−08 Molar | GI50 (K-562; K-562): 43.3 nM | CC50 (K-562; K-562): 1200 nM | TGI K-562 (K-562; K-562, total growth inhibition (cytostatic effect)): 2.47E−07 Molar | GI50 (HeLa-APL): 157 nM | CC50 (HeLa-APL): 1760 nM | TGI HELA-APL (HeLa-APL; [1]): 5.16E−07 Molar | GI50 (A-549; A-549): 45.8 nM | CC50 (A-549; A-549): 16500 nM | TGI A-549 (A-549; A-549, total growth inhibition (cytostatic effect)): 4.38E−07 Molar | GI50 (HeLa; HELA): 52.2 nM | CC50 (HeLa; HELA): 1240 nM | TGI HELA (HeLa; HELA, total growth inhibition (cytostatic effect)): 1.31E−07 Molar

COc1cc(-c2c3c4cc(OC)c(OC(=O)[C@@H](N)Cc5ccccc5)cc4oc(=O)c3n3ccc4c(OC(=O)[C@@H](N)Cc5ccccc5)c(OC)c(OC)cc4c23)ccc1OC(=O)[C@@H](N)Cc1ccccc1 [Compound 207]
GI50 (IGROV-ET): 43.6 nM | CC50 (IGROV-ET): 2380 nM | TGI IGROV-ET (IGROV-ET): 2.86E−07 Molar | GI50 (LNCaP): 127 nM | CC50 (LNCaP): 4100 nM | TGI LN-caP (LNCaP): 9.44E−07 Molar | CC50 (PANC-1; Homo sapiens, PANC-1, PANC-1): 9260 nM | IC (TGI) (PANC-1; Homo sapiens, PANC-1, PANC-1, total growth inhibition (cytostatic effect), read-out: TGI PANC-1): 2370 nM | GI50 (PANC-1; PANC-1): 127 nM | CC50 (LoVo-Dox; Homo sapiens): 9260 nM | IC (TGI) (LoVo-Dox; Homo sapiens, total growth inhibition (cytostatic effect), read-out: TGI LOVO-DOX): 2850 nM | GI50 (LoVo-Dox): 316 nM | GI50 (HT-29; HT-29): 3770 nM | CC50 (HT-29; Homo sapiens, HT-29, HT-29): 9260 nM | IC (TGI) (HT-29; Homo sapiens, HT-29, HT-29, total growth inhibition (cytostatic effect), read-out: TGI HT-29): 9260 nM | GI50 (SK-MEL-28): 44.4 nM | CC50 (SK-MEL-28): 4600 nM | TGI MEL-28 (SK-MEL-28): 2.45E−07 Molar | GI50 (IGROV): 76.3 nM | CC50 (IGROV): 1550 nM | TGI IGROV (IGROV): 3.18E−07 Molar | CC50 (LoVo; Homo sapiens, LoVo): 868 nM | IC (TGI) (LoVo; Homo sapiens, LoVo, total growth inhibition (cytostatic effect), read-out: TGI LOVO): 405 nM | GI50 (LoVo; LOVO): 189 nM | GI50 (SK-BR-3): 202 nM | CC50 (SK-BR-3): 4210 nM | TGI SK-BR-3 (SK-BR-3): 1.07E−06 Molar | GI50 (DU-145): 23 nM | CC50 (DU-145): 74.8 nM | TGI DU-145 (DU-145): 4.16E−08 Molar | CC50 (K-562; Homo sapiens, K562, K-562): 9260 nM | IC (TGI) (K-562; Homo sapiens, K562, K-562, total growth inhibition (cytostatic effect), read-out: TGI K-562): 3060 nM | GI50 (K-562; K-562): 92 nM | GI50 (HeLa-APL; Homo sapiens): 77.9 nM | CC50 (HeLa-APL; Homo sapiens): 3710 nM | IC (TGI) (HeLa-APL; Homo sapiens, total growth inhibition (cytostatic effect), read-out: TGI HELA-APL): 1500 nM | GI50 (A-549; A-549): 91.4 nM | CC50 (A-549; Homo sapiens, A549, A-549): 3550 nM | IC (TGI) (A-549; Homo sapiens, A549, A-549, total growth inhibition (cytostatic effect), read-out: TGI A-549): 1020 nM | GI50 (HeLa; Homo sapiens, HeLa): 42.2 nM | CC50 (HeLa; Homo sapiens, HeLa): 3340 nM | IC (TGI) (HeLa; Homo sapiens, HeLa, total growth inhibition (cytostatic effect), read-out: TGI HELA): 1230 nM
